Reference: patent US12312628B2, “Metabolic control over organometallic catalysts using electroactive bacteria” (THE BOARD OF REGENTS OF THE UNIVERSITY OF TEXAS SYSTEM, priority 2018, dated 2025)

Assays:
E. coli = details: polymerization conditions, Cu(II/I) 2 μM
S. oneidensis MR-1 = assay: Bacterial viability after polymerization (LIVE/DEAD BacLight, CFU counting); assay type: cell-based, Shewanella oneidensis
Description: Bacterial viability was determined by CFU counting and staining with the LIVE/DEAD BacLight Viability Kit (Invitrogen). For CFU counting, serial dilutions from the Cu-TPMA polymerization reaction and a control culture containing 20 mM sodium lactate and 40 mM sodium fumarate were plated onto LB agar containing 20 mM sodium lactate and 40 mM sodium fumarate, and incubated anaerobically for 18 hours. The LIVE/DEAD BacLight Viability Kit was used according to manufacturer instructions. Briefly, cells were harvested after polymerization and washed 3× with 0.85% saline by centrifugation at 6000×g for 20 min. Cells were concentrated to an OD600 of ˜2.0 and incubated with the LIVE/DEAD BacLight Bacterial Viability dye mixture in the dark for 15 minutes. Excess, unbound dye was removed by repeated centrifugation and washing with 0.85% saline (total of 5 washes). 20 μL of cells were placed on glass slides, allowed to settle, and covered with a 0.17 mm coverslip. Excess moisture was wicked from the slide edges and the coverslips were sealed with nail polish. A Zeiss Axiovert 200M Fluorescent Microscope was used to image live and dead cells at room temperature. Images were captured using 475/40 nm excitation and 530/50 nm emission for green (live) fluorescence and 560/40 nm excitation and 630/75 nm emission for red (dead) fluorescence with a 40× oil objective. Cell counts to determine the viable population percentages were quantified by thresholding using Fiji 1.0 software from at least 3 different fields of view. Representative images were background subtracted using a rolling ball radius of 10 pixels in Fiji 1.0.

[1] = system: S. oneidensis genomic knockout strain (ΔmtrCΔomcAΔmtrF) with BUFFER GATE/sfGFP plasmid; assay: BUFFER GATE/sfGFP reporter response to inducer; assay type: cell-based, Shewanella oneidensis; details: various concentrations of IPTG
Text: An S. oneidensis strain/plasmid system was developed that tunes extracellular electron transfer via BUFFER GATE-controlled expression of mtrC. The BUFFER GATE sets gene expression as ‘off’ in the absence of a user-defined signal (e.g., small-molecule, light, heat). However, in the signal's presence, the BUFFER GATE turns gene expression ‘on’. A BUFFER GATE was constructed by encoding the LacI repressor and Ptac promoter pairing on a plasmid, which together can modulate transcription of promoter-downstream genes based on culture concentration of the small-molecule Isopropyl β-D-1-thiogalactopyranoside or IPTG. To test the functionality and dynamic range of gene expression actuated by this BUFFER GATE, a plasmid was constructed that placed a ribozyme-insulated fluorescent reporter gene, superfolder GFP or sfGFP, downstream of the Ptac promoter. This BUFFER GATE/sfGFP plasmid was used to transform an S. oneidensis genomic knockout strain (ΔmtrCΔomcAΔmtrF) and sfGFP fluorescence was measured at various concentrations of IPTG. Using this S. oneidensis strain, 488/530 nm fluorescence varied over about 2 orders of magnitude (FIG. 11).

Compound: O.O.O.O.O.O=S(=O)([O-])[O-].[Cu+2] [Cu(II), Cupric sulfate pentahydrate]
- post-polymerization viability (E. coli): 86%
- post-polymerization viability (S. oneidensis MR-1; MR-1, polymerization conditions, Cu(II/I) 2 μM): 74%
- MR-1 colony forming units (CFUs) following polymerization (S. oneidensis MR-1; optimized polymerization conditions, Cu(II/I) 2 μM and below): No significant difference

Compound: [Cu+] [Cu(I)]
- inhibition of MR-1 growth (S. oneidensis MR-1; after 24 hours of polymerization, CuSO4·5H2O and EDTA): minimal inhibition

Compound: CC(C)S[C@@H]1O[C@H](CO)[C@H](O)[C@H](O)[C@H]1O [IPTG, Isopropyl β-D-1-thiogalactopyranoside]
- sfGFP 488/530 nm fluorescence variation [1]: about 2 orders of magnitude
